Consider 40 compounds from paper PMC5748281 (ACS Omega, 2017).

For data set [1], the system named is yeast cells. To be noted: cited from earlier work.
Data set [2] concerns S. cerevisiae. In words: Growth inhibition assay, 96-well microplate format. Format: cell-based, Saccharomyces cerevisiae. To be noted: for IC80: read-out: log 1/IC80 Obsd (converted).
For data set [3], the system named is S. cerevisiae. Kind of data set: DEL. To be noted: IC80 concentration; for Induction of deletion, fold increase over untreated control, Obsd: 17 h, DEL(URA3) strain, average of three samples; for deletion formation / genotoxicity in words: DEL assay.
The subject of data set [4] is yeast. Particulars: aniline metabolites in yeast; cited from earlier work.
A short description of data set [5]: Water solubility. Particulars: water / assay medium. Format: physicochemical.
In data set [6] the test system is DNA repair null mutant yeast strains. Type of data set: cell-based, Saccharomyces cerevisiae.
The mark [7] stands for this setting: Saccharomyces cerevisiae, 17 h, read-out: log 1/IC50 Obsd (converted).

“Also recorded” adds a separate entry of the source. Read-outs that look alike come from different tables or passages of the source.

As a reminder, the inhibition is the percentage by which the read-out fell short of the control.

As for `Oc1c(Cl)c(Cl)c(Cl)c(Cl)c1Cl` [2,3,4,5,6-Cl5], in data set [1], the “log 1/ICFR50 Obsd” value is listed as 3.96.
As to `Oc1c(F)c(F)c(F)c(F)c1F` [2,3,4,5,6-F5], in data set [1], the “log 1/ICFR50 Obsd” value was 2.05.
As for `Oc1cc(Cl)c(Cl)c(Cl)c1Cl` [2,3,4,5-Cl4], the “log 1/ICFR50 Obsd” value in data set [1] is 3.92.
For the compound `Oc1cccc(Cl)c1Cl` [2,3-Cl2], the “log 1/ICFR50 Obsd” value in data set [1] is 2.68.
Turning to `Oc1cc(Cl)c(Cl)cc1Cl` [2,4,5-Cl3], the “log 1/ICFR50 Obsd” value in data set [1] is listed as 3.26.
Take `Oc1c(I)cc(I)cc1I` [2,4,6-(I)3]: the “log 1/ICFR50 Obsd” value in data set [1] is reported as 4.3.
On to `Oc1c(Cl)cc(Cl)cc1Cl` [2,4,6-Cl3], for which, in data set [1], the “log 1/ICFR50 Obsd” value was 3.28.
As to `Oc1ccc(Cl)cc1Cl` [2,4-Cl2], the “log 1/ICFR50 Obsd” value in data set [1] is listed as 2.77.
Take `Oc1c(Cl)cccc1Cl` [2,6-Cl2]: in data set [1], the “log 1/ICFR50 Obsd” value is 2.52.
Take `Oc1ccccc1Br` [2-Br]: the “log 1/ICFR50 Obsd” value in data set [1] is reported as 2.08.
For the compound `COc1ccc(O)c(C(C)(C)C)c1` [2-C(CH3)3,4-OCH3, 2-tert-butyl-4-methoxy-phenol], the IC50 in data set [2] (setting [7]) was 288 µM. Also, the IC80 in data set [2] (Saccharomyces cerevisiae, 17 h) was 0.407 mM. The “Induction of deletion, fold increase over untreated control, Obsd” value (from here on “Induction of deletion, fold increase”) was 2.57 fold in data set [3] and “greater than 2 fold” in data set [3] (listed as BHA-2).
`Cc1ccc(O)c(N)c1` [2-NH2,4-CH3]: the “log 1/ICFR50 Obsd” value in data set [1] is 1.07.
Turning to `Oc1ccccc1O` [2-OH (catechol), catechol], the IC50 in data set [2] (setting [7]) was 2240 µM. Moreover, the IC80 in data set [2] (Saccharomyces cerevisiae, 17 h) is 3.39 mM. For the same compound, in data set [3], the “Induction of deletion, fold increase” value came to 2.26 fold.
In the case of `Oc1cc(Cl)c(Cl)c(Cl)c1` [3,4,5-Cl3], the “log 1/ICFR50 Obsd” value in data set [1] is listed as 3.3.
In the case of `CC(C)(C)c1cc(O)cc(C(C)(C)C)c1` [3,5-(C(CH3)3)2], in data set [1], the “log 1/ICFR50 Obsd” value is on record as 3.96.
Consider `COc1cc(O)cc(OC)c1` [3,5-(OCH3)2], for which the “log 1/ICFR50 Obsd” value in data set [1] is 1.54.
Take `COc1ccc(O)cc1C(C)(C)C` [3-C(CH3)3,4-OCH3, 3-tert-butyl-4-methoxy-phenol]: in data set [2] (setting [7]), the IC50 was 380 µM. The IC80 in data set [2] (Saccharomyces cerevisiae, 17 h) is 0.49 mM. For the same compound, in data set [3] (listed as BHA-3), the “deletion formation / genotoxicity in words” value is “do not increase the deletion formation”. For the same compound, the “Induction of deletion, fold increase” value in data set [3] was 1.17 fold.
For the compound `Oc1cccc(C(F)(F)F)c1` [3-CF3], in data set [1], the “log 1/ICFR50 Obsd” value is 2.31.
As for `CCCCCc1ccc(O)cc1` [4-(CH2)4CH3, 4-pentylphenol], in data set [2] (setting [7]), the IC50 was 89.1 µM. Moreover, in data set [2] (Saccharomyces cerevisiae, 17 h), the IC80 is 0.11 mM.
As for `CCCCCCCCCc1ccc(O)cc1` [4-(CH2)8CH3, 4-nonylphenol], the IC50 in data set [2] (Saccharomyces cerevisiae, 17 h) was 20 µM; in data set [2] (setting [7]), 20 µM. In addition, the IC80 in data set [2] (Saccharomyces cerevisiae, 17 h) was 0.0398 mM. The “Induction of deletion, fold increase” value in data set [3] is 2.58 fold.
Consider `Oc1ccc(Br)cc1` [4-Br, 4-bromophenol], for which the “log 1/ICFR50 Obsd” value in data set [1] is reported as 2.4. The IC50 in data set [2] (setting [7]) was 832 µM. Also, in data set [2] (Saccharomyces cerevisiae, 17 h), the IC80 was 1.1 mM.
On to `Cc1ccc(O)c([N+](=O)[O-])c1` [4-CH3,2-NO2], for which the “log 1/ICFR50 Obsd” value in data set [1] is given as 2.1.
For the compound `N#Cc1ccc(O)cc1` [4-CN, 4-cyanophenol], the IC50 in data set [2] (setting [7]) was 3020 µM. The IC80 in data set [2] (Saccharomyces cerevisiae, 17 h) was 5.5 mM. The “Induction of deletion, fold increase” value in data set [3] is listed as 1.25 fold.
In the case of `O=C(O)c1ccc(O)cc1` [4-COOH], the “log 1/ICFR50 Obsd” value in data set [1] is reported as 1.75.
Regarding `Cc1cc(O)cc(C)c1Cl` [4-Cl, 3,5-(CH3)2], the “log 1/ICFR50 Obsd” value in data set [1] is recorded as 2.96.
Turning to `Oc1ccc(Cl)cc1` [4-Cl, 4-chlorophenol], the “log 1/ICFR50 Obsd” value in data set [1] is given as 2.07. Further, the IC50 in data set [2] (setting [7]) was 1350 µM. In data set [2] (Saccharomyces cerevisiae, 17 h), the IC80 was 1.66 mM. Further, the “Induction of deletion, fold increase” value in data set [3] stood at 1.85 fold.
For the compound `Oc1ccc(F)cc1` [4-F, 4-fluorophenol], in data set [2] (setting [7]), the IC50 was 4790 µM. Besides, the IC80 in data set [2] (Saccharomyces cerevisiae, 17 h) was 6.17 mM. In data set [3], the “Induction of deletion, fold increase” value amounted to 2.03 fold.
For the compound `Oc1ccccc1` [4-H, phenol], the “log 1/ICFR50 Obsd” value in data set [1] is listed as 1.17. The IC50 in data set [2] (setting [7]) was 11000 µM. In data set [2] (Saccharomyces cerevisiae, 17 h), the IC80 was 14.1 mM. Moreover, the “Induction of deletion, fold increase” value in data set [3] was 2.27 fold.
Consider `Oc1ccc(I)cc1` [4-I], for which the “log 1/ICFR50 Obsd” value in data set [1] was 2.4.
Take `O=[N+]([O-])c1ccc(O)cc1` [4-NO2, 4-nitrophenol]: the “log 1/ICFR50 Obsd” value in data set [1] is 2.85. Moreover, the IC50 in data set [2] (setting [7]) is 603 µM. In addition, in data set [2] (Saccharomyces cerevisiae, 17 h), the IC80 is 0.813 mM.
For `CCOc1ccc(O)cc1` [4-OC2H5, 4-ethoxyphenol], the IC50 in data set [2] (setting [7]) is 6760 µM. For the same compound, the IC80 in data set [2] (Saccharomyces cerevisiae, 17 h) was 7.94 mM.
In the same order, the values of `CCCOc1ccc(O)cc1` [4-OC3H7, 4-propoxyphenol] are 1820 µM and 2.24 mM.
As for `CCCCOc1ccc(O)cc1` [4-OC4H9, 4-butoxyphenol], in data set [2] (setting [7]), the IC50 was 525 µM. The IC80 in data set [2] (Saccharomyces cerevisiae, 17 h) was 0.692 mM.
On to `COc1ccc(O)cc1` [4-OCH3, 4-methoxyphenol], for which, in data set [2] (setting [7]), the IC50 is 10500 µM. In addition, in data set [2] (Saccharomyces cerevisiae, 17 h), the IC80 is 12.3 mM. In addition, the “Induction of deletion, fold increase” value in data set [3] is given as 2.01 fold.
`Oc1ccc(O)cc1` [4-OH, hydroquinone]: the IC50 in data set [2] (setting [7]) is 27500 µM. The IC80 in data set [2] (Saccharomyces cerevisiae, 17 h) was 40.7 mM. For the same compound, the “Induction of deletion, fold increase” value in data set [3] worked out at 2.25 fold.
Take `CC(=O)Nc1ccc(O)cc1` [4-acetamidophenol]: the “increase in deletion frequencies in words” value in data set [4] is “did not show a significant increase”.
In the case of `CCCCCCCCCCCCc1ccc(O)cc1` [4-dodecylphenol], the inhibition at 350 µM in data set [2] (Saccharomyces cerevisiae, read-out: growth inhibition) worked out at 40%. Also, the solubility in words entry in data set [5] was “poor water solubility”.
In the case of `COc1ccc(O)c(C(C)(C)C)c1` [BHA, butylated hydroxy anisole], the “log 1/IC80 Obsd” value in data set [2] (80% inhibition of yeast growth, 17 h, 30 °C, OD 655 nm) came out at 3.37. The “log 1/IC50 Obsd” value in data set [2] (inhibition of yeast growth, 17 h, 30 °C, OD 655 nm) was 3.72. Also, in data set [6], the “growth phenotype of DNA repair null mutant strains” value was “growth defects in most of the DNA repair null mutant strains tested; also recorded: some level of growth defect”, the “growth phenotype of Δrad4 strain” value is “more resistant” and the “growth phenotype of Δrad14 strain” value was “increased sensitivity”. In addition, the “deletion formation / genotoxicity in words” value in data set [3] is “significant increase in deletion events”.
Take `Cc1cc(C(C)(C)C)c(O)c(C(C)(C)C)c1` [BHT, 2,6-di-tert-butyl-4-methyl-phenol]: in data set [2] (setting [7]), the IC50 was 132 µM. Besides, the IC80 in data set [2] (Saccharomyces cerevisiae, 17 h) is 0.251 mM. In addition, the “growth phenotype of DNA repair null mutant strains” value in data set [6] is listed as “unresponsive; also recorded: negligible; also recorded: did not cause clear growth defects”.
In the case of `CC(C)(c1ccc(O)cc1)c1ccc(O)cc1` [bisphenol-A, bisphenol A], in data set [2] (setting [7]), the IC50 is 676 µM. Moreover, the IC80 in data set [2] (Saccharomyces cerevisiae, 17 h) was 0.813 mM.
